These are literature values, as cited in patent US20250032585A1, “Effective Doses of CNP Conjugates” (Ascendis Pharma Growth Disorders A/S, priority 2021, published 2025).

One may read the half-life as how long it takes for the measured level to halve.

Data set [1] deals with NPR-B receptor. To be noted: pediatric patients with achondroplasia; increase from pre-dose baseline.
Data set [2] deals with pediatric patients with achondroplasia.
For data set [3] the following is noted: in vivo, sc.

As for vosoritide, the “time of maximum urinary cGMP level post-dose” value in data set [1] was 2 h. Further, the “treatment difference in the change from baseline in annual growth velocity (AGV) compared to placebo” value in data set [2] (after 52 weeks of treatment) is given as 1.57 cm/year. Further, in data set [2] (human, in vivo), the “subjects with decreased blood pressure” value is 13% and the “subjects with symptomatic episode of decreased blood pressure with vomiting and/or dizziness” value is 3%. For the same substance, the half-life in data set [3] is 21.0 to 27.9 min.
